Measured values as given in patent US4855497A, “Novel diamine derivatives” (Chugai Seiyaku Kabushiki Kaisha, priority 1985, dated 1989).

What was measured:
[1] = tested on: Ouabain-Induced Arrythmia; assay: Activity against ouabain-induced arrythmia in guinea pigs; type: in vivo, Hartly male guinea pigs; settings: ouabain 5 μg/kg/min; for Time required for ventricular extrasystole to occur: untreated 28.5 min; for Time required for ventricular fibrillation to occur: untreated 35.1 min; for Time required for cardiac arrest to occur: untreated 41.2 min
Description: Activity Against Ouabain-Induced Arrythmia in Guinea Pigs
Hartly male guinea pigs (5-6 wk. old, two animals per group) weighing about 350 g on average were anesthetized by intraperitoneal administration of 1.2 g/kg of urethane. A polyethylene cannula was inserted into both the cervical vein and the carotid artery; the drug was administered through the cervical vein while the blood pressure was measured at the carotid artery. A selected test compound was administered 5 minutes before the sustained intravenous infusion of the ouabain solution (5 μg/kg/min) as described in J. Pharmacol. Exp. Ther., 136, 227, 1962). Identification of arrythmia was made by the ECG in the second induction period; the appearance of a QRS complex with sharply downward deflictions was used as an indication of ventricular arrythmia and observation was continued until ventricular fibrillation and cardiac arrest appeared. The results are shown in Table 4 in terms of the times required for ventricular extrasystole, ventricular fibrillation and cardiac arrest to occur.

[2] = tested on: Aconitine-Induced Arrythmia; assay: Activity against aconitine-induced arrythmia in rats; type: in vivo, Sprague-Dowley male rats; settings: aconitine 1 μg/kg/min; for Time required for ventricular extrasystole to occur: untreated 14.3 min; for Time required for ventricular fibrillation to occur: untreated 35.3 min
Description: Activity Against Aconitine-Induced Arrythmia in Rats
Using Sprague-Dowley male rats (9-10 wk. old, two animals per group) weighing about 350 g on average, the following experiment was conducted substantially in compliance with the method of Vargftig et al. (Europ. J. Pharmacol., 6, 49, 1969).
The animals were anesthetized by intraperitoneal administration of 1 g/kg of urethane. A polyethylene cannula was inserted into both the femoral artery and vein of each animal; the drug was administered through the femoral vein while the blood pressure was measured at the femoral artery.
While the aconitine solution was continuously infused into the vein at a rate of 1 μg/kg/min, a selected compound was administered intravenously at 5-minute intervals. In order to prevent the aconitine-induced dyspnea from interfering with the experimental results, 0.2 mg/kg of d-tubocurarine was administered intravenously to each animal, which then was subjected to artificial respiration through a cannula inserted into the trachea (80 breathings/min, with 4 ml of air supplied by a single ventillation).
Identification of arrythmia was made by the ECG in the second induction period; the appearance of a QRS complex with sharply downward deflections was used as an indication of ventricular arrythmia and observation was continued until ventricular fibrillation appeared. The results are shown in Table 3 in terms of the times required for ventricular extrasystole and ventricular fibrillation to occur.

[3] = tested on: Chloroform-Induced Arrythmia; assay: Activity against chloroform-induced arrythmia in rats (prevention of ventricular fibrillation); type: in vivo, Sprague-Dowley male rats; settings: 30 min prior to chloroform; for responders at 1 mg/kg: Rattus norvegicus, po, 0.5 h, not starved rats, 1 mg/kg P.O., read-out: Percent prevention (ventricular fibrillation), not starved
Description: Activity Aganist Chloroform-Induced Arrythmia in Rats
The following procedures were substantially in accordance with the method of Erker and Baker (Arch. Int. Pharmacodyn., 243, 97-102, 1980). Aminophylline (20 mg/kg) was injected intramuscularly into two groups of Sprague-Dowley male rats (3-4 wk. old, 7 animals per group) weighing about 100 g on average, one group having been starved for 24 hours and the other group not starved. Thirty minutes after the injection, the animals were put into a 4,000-ml glass beaker with a lid that contained gauze impregnated with […] of chloroform. Fifty minutes later, the animals were recovered from the beaker and their chests were incised to check their hearts for the presence of ventricular fibrillation. The features of their cardiac rhythm were examined by the electrocardiogram. When no distinct fibrillation was observed, the heart was touched with tweezers. The heart was identified as fibrillar when rapid irregular twitchings occured on the surface of ventricles and continued for at least 5 seconds after chest incision or mechanical stimulation.
Selected compounds suspended in 3% gum arabic were administered in various doses to the rats either intraperitoneally (i.P.) or perorally (P.O.) 30 minutes prior to treatment with chloroform. The percent prevention of ventricular fibrillation was determined for each rat. Only a 3% gum arabic solution was administered to the control group.

[4] = tested on: Acetylcholine; assay: Activity against acetylcholine (I): inhibition of acetylcholine-induced contraction of isolated ilea; set-up: species or system SD/Slc male rats; settings: 10^-4 M; 10^-6 M acetylcholine; isolated rat ilea
Description: Activity Against Acetylcholine (I)
SD/Slc male rats (10-mo. old, four animals per group) were clubbed dead and their ilea were immediately extracted. The ilea were suspended under a load of 1 g in a Krebs-Henseleit solution oxygenated with a mixture of 95% O2 +5% CO2 at 27° C., and the ileal reaction was measured isotonically.
The anti-cholinergic activity of each of the compounds tested was determined in terms of percent inhibition against the contractive reaction of 10^-6 M of acetylcholine (causing 60-70% of the maximum contractive reaction of acetylcholine).

[5] = tested on: Blood Sugar Level; assay: Effect on blood sugar level; type: in vivo, SD/Slc male rats; settings: starved overnight
Description: Effect on Blood Sugar Level
After starving SD/Slc male rats (body weight, 250 g; 6 animals per group) overnight, 20-μl blood samples were drawn from the tail vein of each rat while it was not anesthetized. Records were taken of the sugar level in each blood sample. A selected compound of the present invention was suspended in 3% gum arabic and the suspension was administered perorally to each rat in an amount of 50 or 200 mg/kg. At 2, 4 and 6 hours of the administration, blood samples were taken and their blood sugar levels were measured. Measurements of blood sugar levels were conducted with a New Blood Sugar Test (Boehringer, Mannheim).
To the control group, a 3% gum arabic solution was administered, and diisopyramide was administered as a comparative drug.

[6] = peroral, clinical; cited from earlier work
[7] = tested on: sleeping induced by hexobarbital; assay: Effect on the time of sleeping induced by hexobarbital; type: in vivo, ddY/Slc male rats; settings: 5 mg/kg perorally; ** p < 0.05 vs untreated (53.9 ± 2.7)
Description: Effect on the Time of Sleeping Induced by Hexobarbital
A selected compound of the present invention was administered perorally to ddY/Slc male rats (5-6 wk. old, 10 animals per group) in an amount of 50 or 100 mg/kg. One hour later, […] of hexobarbital was administered intraperitoneally to each animal, thereby causing the loss of orthogonal reflex. The time required for the recovery of orthogonal reflex was measured for each animal.
As comparative drugs, 50 or 100 mg/kg of disopyramide and 5 mg/kg of diazepam were administered perorally.

| Structure (SMILES) | Time required for ventricular extrasystole to occur ([2]; 5 mg/kg intravenously) | Time required for ventricular fibrillation to occur ([2]; 5 mg/kg intravenously) | responders at 1 mg/kg [3] | Time required for ventricular extrasystole to occur ([1]; 10 mg/kg via cervical vein) | Time required for ventricular fibrillation to occur ([1]; 10 mg/kg via cervical vein) | Time required for cardiac arrest to occur ([1]; 10 mg/kg via cervical vein) | Percent inhibition (contractive reaction of acetylcholine) [4] | other results |
| --- | --- | --- | --- | --- | --- | --- | --- | --- |
| CCc1cccc(CC)c1NC(=O)CCNCCCN(CC(C)C)CC(C)C [compound 31] | 26.1 min | > 90.0 min | 100% | – | – | – | – | Time required for ventricular extrasystole to occur ([1]; 5 mg/kg via cervical vein): 34.1 min; Time required for ventricular fibrillation to occur ([1]; 5 mg/kg via cervical vein): 51.0 min; Time required for cardiac arrest to occur ([1]; 5 mg/kg via cervical vein): 57.8 min |
| Cc1cccc(C)c1NC(=O)CCNCCCN(C)C [Compound No. 2, 3-(dimethylaminopropylamino)-2',6'-dimethylpropionanilide] | 25.5 min | 36.5 min | 71.4% | 38.1 min | 43.4 min | 48.7 min | 7% | Time required for ventricular extrasystole to occur ([1]; 5 mg/kg via cervical vein): 31.0 min; Time required for ventricular fibrillation to occur ([1]; 5 mg/kg via cervical vein): 38.5 min; Time required for cardiac arrest to occur ([1]; 5 mg/kg via cervical vein): 39.5 min; Blood sugar level, 0 hr (mean ± S.E.) ([5]; 50 mg/kg perorally): 77.6 ± 5.5 mg/dL; Blood sugar level, 2 hr (mean ± S.E.) ([5]; 50 mg/kg perorally): 61.3 ± 2.2 mg/dL; Blood sugar level, 4 hr (mean ± S.E.) ([5]; 50 mg/kg perorally): 63.7 ± 4.5 mg/dL; Blood sugar level, 6 hr (mean ± S.E.) ([5]; 50 mg/kg perorally): 64.4 ± 4.4 mg/dL; Blood sugar level, 0 hr (mean ± S.E.) ([5]; 200 mg/kg perorally): 76.1 ± 2.4 mg/dL; Blood sugar level, 2 hr (mean ± S.E.) ([5]; 200 mg/kg perorally): 52.9 ± 3.2 mg/dL; Blood sugar level, 4 hr (mean ± S.E.) ([5]; 200 mg/kg perorally): 58.3 ± 2.6 mg/dL; Blood sugar level, 6 hr (mean ± S.E.) ([5]; 200 mg/kg perorally): 56.8 ± 1.7 mg/dL |
| Cc1cccc(C)c1NC(=O)CCNCCCNC1CCCCCCC1 [compound 14] | – | – | 85.7% | – | – | – | – | – |
| Cc1cccc(C)c1NC(=O)CCNCCNC(C)C [Compound No. 4, 3-(isopropylaminoethylamino)-2', 6'-dimethylpropionanilide] | – | – | 100% | 42.5 min | 59.5 min | 66.5 min | 0% | Blood sugar level, 0 hr (mean ± S.E.) ([5]; 50 mg/kg perorally): 81.2 ± 2.4 mg/dL; Blood sugar level, 2 hr (mean ± S.E.) ([5]; 50 mg/kg perorally): 60.3 ± 3.4 mg/dL; Blood sugar level, 4 hr (mean ± S.E.) ([5]; 50 mg/kg perorally): 57.5 ± 1.6 mg/dL; Blood sugar level, 6 hr (mean ± S.E.) ([5]; 50 mg/kg perorally): 61.5 ± 0.6 mg/dL; Blood sugar level, 0 hr (mean ± S.E.) ([5]; 200 mg/kg perorally): 69.1 ± 2.9 mg/dL; Blood sugar level, 2 hr (mean ± S.E.) ([5]; 200 mg/kg perorally): 57.4 ± 3.0 mg/dL; Blood sugar level, 4 hr (mean ± S.E.) ([5]; 200 mg/kg perorally): 58.5 ± 2.1 mg/dL; Blood sugar level, 6 hr (mean ± S.E.) ([5]; 200 mg/kg perorally): 59.0 ± 1.8 mg/dL; Time required for ventricular extrasystole to occur ([2]; 10 mg/kg intravenously): 34.4 min; Time required for ventricular fibrillation to occur ([2]; 10 mg/kg intravenously): > 120.0 min |
| CCN(CC)CC(=O)Nc1c(C)cccc1C [Lidocaine, reference compound] | – | – | – | – | – | – | – | Percent prevention (ventricular fibrillation), starved ([3]; starved rats, 20 mg/kg i.P.): 77.1%; drug level in blood [6]: too low to attain the desired effectiveness |
| Cc1cccc(C)c1NC(=O)CCCNCCCN(CC(C)C)CC(C)C [compound 18] | – | – | – | – | – | – | 0% | – |
| CCc1cccc(CC)c1NC(=O)CCNCCCCCN(CC(C)C)CC(C)C [compound 35] | 24.5 min | 84.5 min | 100% | – | – | – | 9% | Time required for ventricular extrasystole to occur ([1]; 5 mg/kg via cervical vein): 45.4 min; Time required for ventricular fibrillation to occur ([1]; 5 mg/kg via cervical vein): 48.4 min; Time required for cardiac arrest to occur ([1]; 5 mg/kg via cervical vein): 56.2 min |
| CCN(CC)CCCNCCC(=O)Nc1c(C)cccc1C [Compound No. 3, 3-(diethylaminopropylamino)-2',6'-dimethylpropionanilide] | 27.4 min | > 120.0 min | 100% | 34.4 min | 42.2 min | 48.4 min | 28% | – |
| CN1C(=O)CN=C(c2ccccc2)c2cc(Cl)ccc21 [Diazepam] | – | – | – | – | – | – | – | Time of sleeping (mean ± S.E.) [7]: 136.4 ± 5.8 min |
| Cc1cccc(C)c1NC(=O)CCNCCCN(C(C)C)C(C)C [compound 11] | 26.2 min | 73.8 min | 85.7% | 35.3 min | 45.3 min | 52.4 min | 0% | Blood sugar level, 0 hr (mean ± S.E.) ([5]; 50 mg/kg perorally): 71.3 ± 2.9 mg/dL; Blood sugar level, 2 hr (mean ± S.E.) ([5]; 50 mg/kg perorally): 61.8 ± 3.1 mg/dL; Blood sugar level, 4 hr (mean ± S.E.) ([5]; 50 mg/kg perorally): 64.0 ± 2.2 mg/dL; Blood sugar level, 6 hr (mean ± S.E.) ([5]; 50 mg/kg perorally): 63.8 ± 1.5 mg/dL; Blood sugar level, 0 hr (mean ± S.E.) ([5]; 200 mg/kg perorally): 62.3 ± 2.7 mg/dL; Blood sugar level, 2 hr (mean ± S.E.) ([5]; 200 mg/kg perorally): 52.0 ± 3.5 mg/dL; Blood sugar level, 4 hr (mean ± S.E.) ([5]; 200 mg/kg perorally): 53.8 ± 3.8 mg/dL; Blood sugar level, 6 hr (mean ± S.E.) ([5]; 200 mg/kg perorally): 63.6 ± 1.5 mg/dL; Time required for ventricular extrasystole to occur ([2]; 10 mg/kg intravenously): 44.2 min; Time required for ventricular fibrillation to occur ([2]; 10 mg/kg intravenously): > 120.0 min |
| Cc1cccc(C)c1NC(=O)CCNCCCN(CC(C)C)CC(C)C [compound 12] | 26.2 min | 30.2 min | 85.7% | 45.4 min | 48.2 min | 56.6 min | – | – |
